From ChEMBL document CHEMBL1201862, “PubChem BioAssay data set” (2004)
Where “and” joins values, the source holds several entries; their conditions need not be identical. Equal values may be shown once.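 Step 1: Grow cells in 96-well plates. Step 2: Expose to compound for 48 hours at 5 concentrations. Step 3: Interpolate endpoints linearly; if unreached, use highest concentration. GI50: concentration for 50% inhibition of growth.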 Calls of active or inactive are those of the source. No stated cut-off is given here; in the data, active = GI50 up to about 1.1 µM and inactive = higher.

Legend:
Test in all cases: DTP human tumour cell line panel, 48 h
MDA-N = test system: MDA-N
BT-549 = test system: BT-549
DMS-114 = test system: DMS-114
SNB-78 = test system: SNB-78
DMS-273 = test system: DMS-273
KM-20L2 = test system: KM-20L2
HOP-18 = test system: HOP-18
XF498 = test system: XF498

Row | SMILES | GI50 (MDA-N) | GI50 (BT-549) | other results
1 | COc1cc(OC)c(C2c3cc4c(cc3OC(N3CCCC3)C2C)OCO4)c(OC)c1 (stereo not drawn) | 15 µM (inactive) |  | 
2 | CCCC1C2=C(C(=O)OC2=O)C2C(CC)CC3=C(C(=O)OC3=O)C12 (stereo not drawn) | > 100 µM (inactive) | > 100 µM (inactive) | 
3 | CC(C)(C)OC(=O)NC(Cc1ccccc1)C(=O)OCN1C(=O)C2C3C=CC(C2C1=O)C1C2C(=O)N(COC(=O)C(Cc4ccccc4)NC(=O)OC(C)(C)C)C(=O)C2C31 (stereo not drawn) |  | 18.6 µM (inactive) | 
4 | CC1=CC(=O)CC2(C)CCC(C(C)CC(=O)CC(C)C)CC12OO (stereo not drawn) | 18.8 µM (inactive) and 18.1 µM (inactive) |  | 
5 | CC1=CC(O)(c2ccccc2)C(N2CCOCC2)N1O (stereo not drawn) | > 100 µM (inactive) | > 100 µM (inactive) | 
6 | O=C1c2ccccc2C(=O)c2sc(Nc3ccccc3C(F)(F)F)nc21 | 12.5 µM (inactive) |  | 
7 | COC(=O)C1=C(O)CCCC(C2CCCCC(=O)C2C(=O)OC)=C1 (stereo not drawn) | > 100 µM (inactive) | 78.9 µM (inactive) | 
8 | O=C1c2ccc(O)c(O)c2C(=O)c2c(O)ccc(O)c21 [QUINALIZARIN] |  |  | GI50 (DMS-114): 15.9 µM (inactive); GI50 (SNB-78): 41.3 µM (inactive); GI50 (DMS-273): 25.2 µM (inactive); GI50 (KM-20L2): 25.4 µM (inactive)
9 | Cn1c(=S)c2nc(SCc3cccnc3)[nH]c2n(C)c1=O | > 100 µM (inactive) | > 100 µM (inactive) | 
10 | CC1(C)OC2OC(C(COS(=O)(=O)C(F)(F)F)N=[N+]=[N-])C(OC(=O)c3ccccc3)C2O1 (stereo not drawn) | > 100 µM (inactive) | > 100 µM (inactive) | 
11 | CCOC(=O)N1c2ccccc2N(C(=O)OCC)C1CC(=O)/C=C/c1ccccc1 | 3.57 µM (inactive) | 2.89 µM (inactive) | 
12 | COc1cc(C(=O)N(C(=S)OC23CC4CC(CC(C4)C2)C3)c2ccccc2)cc(OC)c1OC | 25.1 µM (inactive) | 33 µM (inactive) | 
13 | N#Cc1cccc(NC(=O)c2ccc(C(=O)O)c(C(=O)c3ccc(C(=O)O)c(C(=O)Nc4cccc(C#N)c4)c3)c2)c1 |  |  | GI50 (HOP-18): > 100 µM (inactive); GI50 (DMS-114): > 100 µM (inactive); GI50 (SNB-78): > 100 µM (inactive); GI50 (XF498): > 100 µM (inactive); GI50 (DMS-273): > 100 µM (inactive); GI50 (KM-20L2): > 100 µM (inactive)
14 | CCOP(=O)(/C=C/n1cnc2c(=O)n(C(C)=O)c(N)nc21)OCC | > 100 µM (inactive) | > 100 µM (inactive) | 
15 | COC(=O)C(=O)C(C(=O)C(=O)Nc1ccc(OC)cc1[N+](=O)[O-])c1nc2ccc([N+](=O)[O-])cc2nc1O (stereo not drawn) |  |  | GI50 (HOP-18): > 100 µM (inactive); GI50 (DMS-114): > 100 µM (inactive); GI50 (SNB-78): > 100 µM (inactive); GI50 (XF498): > 100 µM (inactive); GI50 (KM-20L2): > 100 µM (inactive)
16 | COc1ccc(/C=N/NS(=O)(=O)c2ccc(/C=C3\NC(=O)N(C)C3=O)cc2)cc1 | > 100 µM (inactive) | > 100 µM (inactive) | 
17 | CC(=O)Oc1cccc2c1C(=O)CCCC2 |  | > 100 µM (inactive) | 
18 | CCCCCC(C(O)C#N)C(O)(C(F)(F)F)C(F)(F)F (stereo not drawn) | > 10 µM (inactive) | > 10 µM (inactive) | 

Row | SMILES | GI50 (MDA-N) | GI50 (BT-549) | other results
19 | Nc1nc(Cl)cc(NCC2(CO)CCC(Cc3ccccc3)C2)n1 (stereo not drawn) | 23.1 µM (inactive) | 16.2 µM (inactive) | 
20 | C1CC[N+]23CCCC[N+]2(C1)CCCC3 (stereo not drawn) |  |  | GI50 (DMS-114): 56.2 µM (inactive); GI50 (SNB-78): > 100 µM (inactive); GI50 (KM-20L2): > 100 µM (inactive)
21 | C#CC1(O)CCCCCCCCC2(CCCCCCCC1)OCCO2 | 20.9 µM (inactive) |  | 
22 | CCCCCCCC(CC(=O)NC(CO)C(=O)NC(CO)CC(C)C)OC(=O)CC(CCCCCCC)OC(=O)CC(CCCCCCC)OC1OC(C)C(O)C(OC2OC(C)C(OC(C)=O)C(O)C2O)C1O (stereo not drawn) | 3.4 µM (inactive) | 6.17 µM (inactive) | 
23 | O=C1/C(=C/c2cccc([N+](=O)[O-])c2)N=C(c2ccccc2)N1c1nc2c(Cl)cc(Cl)cc2s1 | 18.4 µM (inactive) | 30.5 µM (inactive) | 
24 | COc1ccc2c(c1)[n+]([O-])c(-c1ccc(OC)c(OC)c1)c(N)[n+]2[O-] |  |  | GI50 (HOP-18): 43.7 µM (inactive); GI50 (DMS-114): 34.1 µM (inactive); GI50 (SNB-78): 95.3 µM (inactive); GI50 (XF498): > 100 µM (inactive); GI50 (DMS-273): 61.5 µM (inactive); GI50 (KM-20L2): 42 µM (inactive)
25 | CC[C@H](C)[C@H]1NC(=O)[C@@H](NC(=O)[C@@H](CC(C)C)N(C)C(=O)C2CCCN2C(=O)[C@H](C)O)[C@@H](C)OC(=O)[C@@H]2Cc3ccccc3CN2C(=O)[C@@H]2CCCN2C(=O)[C@H](CC(C)C)NC(=O)[C@@H](C)C(=O)[C@H](C(C)C)OC(=O)C[C@@H]1O (stereo partly drawn) | 0.388 µM (active) |  | 
26 | COc1ccc2nc3c4c(nccc4c2c1)-c1ncccc1C3=O | 0.0631 µM (active) | 0.109 µM (active) | 
27 | CSCCC(NCc1c(O)ccc2ccc(=O)oc12)C(=O)O (stereo not drawn) | > 100 µM (inactive) |  | 
28 | Cc1ccc(-c2ccc(Nc3c4ccccc4nc4ccccc34)cc2)cn1 | 6.07 µM (inactive) |  | 
29 | CC1=NN(C(=O)CSc2nc3ccc(I)cc3c(=O)n2Cc2ccccc2)C(=O)C1 | 31.2 µM (inactive) |  | 
30 | NCCCN(CCCCN(CCCN)Cc1ccc2ccccc2c1)Cc1ccc2ccccc2c1 | 1.88 µM (inactive) | 2.23 µM (inactive) | 
31 | O=C(NC(=S)Nc1ccc(Br)cc1)c1ccc2c(c1)Sc1ccccc1O2 | > 100 µM (inactive) | > 100 µM (inactive) | 
32 | CCOc1ccc(NC(=S)N/C=C(/C(C)=O)C(=O)Nc2ccccc2C)cc1 | > 100 µM (inactive) | > 100 µM (inactive) | 
33 | N#Cc1c(NCCc2ccc(F)cc2)c2ccccc2n2c1nc1ccccc12 | 21.3 µM (inactive) | 21.2 µM (inactive) | 
34 | Cc1n[nH]c(=O)n1/N=C/c1cccnc1 | > 100 µM (inactive) | > 100 µM (inactive) | 
35 | CCCCC(=O)Oc1ccc2c(C)cc(=O)oc2c1 | > 100 µM (inactive) | > 100 µM (inactive) | 
36 | Nc1ccc(C(=O)NN2C(=O)C(Cl)C2c2cccc(O)c2)cc1 (stereo not drawn) |  |  | GI50 (DMS-114): 5.45 µM (inactive); GI50 (SNB-78): 17.5 µM (inactive); GI50 (DMS-273): 11 µM (inactive); GI50 (KM-20L2): 17.1 µM (inactive)
